Test results from patent publication US20080140450A1, “Treatment of metabolic syndrome with norfluoxetine” (AMPLA Pharmaceuticals Inc., priority 2006, published 2008).

Legend:
[1] = biological target: CB1 receptor (Homo sapiens, UniProt P21554); experiment: functional activity versus the CB1 receptor; settings: qualitative statement, no method or numbers given
Excerpt: Without wishing to be restricted by the proposal, this cannabinoid activity may mediate the utility of these compounds for the treatment of metabolic syndrome or the disorders associated with metabolic syndrome.

[2] = system: monoamine uptake, especially serotonin; settings: qualitative, known from U.S. Pat. No. 4,313,896; cited from earlier work

CB1 receptor, sequence (P21554 whole entry): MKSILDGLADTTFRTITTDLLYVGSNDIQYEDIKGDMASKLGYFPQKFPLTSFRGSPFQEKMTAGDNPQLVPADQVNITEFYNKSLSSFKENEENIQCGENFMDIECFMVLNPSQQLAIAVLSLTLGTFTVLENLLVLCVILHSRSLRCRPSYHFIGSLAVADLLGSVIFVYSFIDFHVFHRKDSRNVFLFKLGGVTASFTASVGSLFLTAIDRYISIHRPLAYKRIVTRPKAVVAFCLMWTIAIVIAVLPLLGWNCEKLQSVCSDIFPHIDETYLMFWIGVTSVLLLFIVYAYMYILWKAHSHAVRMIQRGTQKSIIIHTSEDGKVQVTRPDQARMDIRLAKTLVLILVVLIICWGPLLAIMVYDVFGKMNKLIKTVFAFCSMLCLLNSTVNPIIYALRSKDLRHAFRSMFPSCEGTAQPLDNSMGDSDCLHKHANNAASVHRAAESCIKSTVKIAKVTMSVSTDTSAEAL

Row | SMILES | functional activity versus the CB1 receptor (mode of action) [1] | block of monoamine uptake [2]
1 | CNCC[C@@H](Oc1ccc(C(F)(F)F)cc1)c1ccccc1 [(R)-fluoxetine] | antagonist of CB1 | –
2 | NCCC(Oc1ccc(C(F)(F)F)cc1)c1ccccc1 (racemic) [Norfluoxetine, 3-(4-trifluoromethylphenoxy)-3-phenylpropylamine] | antagonist of CB1 | block monoamine uptake, especially serotonin
3 | CNCC[C@H](Oc1ccc(C(F)(F)F)cc1)c1ccccc1 [(S)-Fluoxetine] | inverse agonist of CB1 | –
